# Results taken from US12385076B2, “Preparation and application of high-activity and high-safety cardamine violifolia selenoprotein standard sample” (priority 2022, dated 2025).
# System: rat liver
# Experiment: Safety animal testing: 3-month repeated oral administration, liver lesions
# Type: in vivo
# Settings: male rats, repeated oral administration for 3 months; dose equivalent to 96 μgSe/kg BW for the human body
smiles,measurement,value
O=[Se](O)O [sodium selenite],liver lesions,caused liver lesions
